These compounds were tested against T1, FimH (Escherichia coli, UniProt P08191) (assay: Hemagglutination inhibition (HAI) assay, guinea pig red blood cells). Details: concentration inhibiting >90% hemagglutination of guinea pig red blood cells.
T1 construct: endogenous in cells; host or cells: type 1 piliated uropathogenic E. coli (UPEC)
Type: cell-based, E. coli
Method: FIG. 15 depicts the hemagglutination assay (HA) used to assess the compounds' ability to block FimH mediated binding. The HAI titer quantitatively measure the effect of inhibitors on blocking the FimH-mediated hemagglutination (HA) of guinea pig red blood cell infected with E. coli.
In some embodiments, activity of the compound is measured using hemmagglutination titer of guinea pig red blood cells. Hemagglutination of guinea pig red blood cells by type1 piliated UPEC is dependent upon FimH mannose binding ability and serial dilutions allow a quantitative analysis.
Hemagglutination assays for mannose-sensitive agglutination of guinea pig red blood cells were performed as previously described.

T1 sequence (P08191 22-300): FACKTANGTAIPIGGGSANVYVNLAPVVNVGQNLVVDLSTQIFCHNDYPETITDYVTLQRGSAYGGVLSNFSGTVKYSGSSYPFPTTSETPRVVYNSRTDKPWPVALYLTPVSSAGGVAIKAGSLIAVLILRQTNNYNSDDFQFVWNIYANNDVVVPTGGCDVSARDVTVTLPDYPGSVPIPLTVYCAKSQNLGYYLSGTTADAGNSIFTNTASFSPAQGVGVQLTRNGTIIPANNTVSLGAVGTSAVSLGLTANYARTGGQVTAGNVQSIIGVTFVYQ

Structure (SMILES) | HAI Titer EC>90
Cc1cc(-c2ccc3ccn(CC(=O)Nc4cccnc4)c(=O)c3c2)ccc1O[C@H]1O[C@@H](CO)[C@@H](O)[C@H](O)[C@H]1O [Example 10, 2-[7-[3-methyl-4-[(2R,3R,4S,5S,6S)-3,4,5-trihydroxy-6-(hydroxymethyl)tetrahydropyran-2-yl]oxy-phenyl]-1-oxo-2-isoquinolyl]-N-(3-pyridyl)acetamide] | 0.001 µM
Cc1cc(-c2ccc3ccn(CC(=O)N4CCN(C)CC4)c(=O)c3c2)ccc1O[C@H]1O[C@@H](CO)[C@@H](O)[C@H](O)[C@H]1O [Example 12, 2-[2-(4-methylpiperazin-1-yl)-2-oxo-ethyl]-7-[3-methyl-4-[(2R,3R,4S,5S,6S)-3,4,5-trihydroxy-6-(hydroxymethyl)tetrahydropyran-2-yl]oxy-phenyl]isoquinolin-1-one] | 0.008 µM
Cc1cc(-c2ccc3ccn(Cc4cccnc4)c(=O)c3c2)ccc1O[C@H]1O[C@@H](CO)[C@@H](O)[C@H](O)[C@H]1O [Example 16, 7-[3-methyl-4-[(2R,3R,4S,5S,6S)-3,4,5-trihydroxy-6-(hydroxymethyl)tetrahydropyran-2-yl]oxy-phenyl]-2-(3-pyridylmethyl)isoquinolin-1-one] | 0.008 µM
COC(=O)Cn1ccc2ccc(-c3ccc(O[C@H]4O[C@@H](CO)[C@@H](O)[C@H](O)[C@H]4O)c(C)c3)cc2c1=O [Example 8, methyl 2-[7-[3-methyl-4-[(2R,3R,4S,5S,6S)-3,4,5-trihydroxy-6(hydroxymethyl)tetrahydropyran-2-yl]oxy-phenyl]-1-oxo-2-isoquinolyl]acetate] | 0.006 µM
Cc1cc(-c2ccc3ccn(CC(=O)O)c(=O)c3c2)ccc1O[C@H]1O[C@@H](CO)[C@@H](O)[C@H](O)[C@H]1O [Example 9, 2-[7-[3-methyl-4-[(2R,3R,4S,5S,6S)-3,4,5-trihydroxy-6-(hydroxymethyl)tetrahydropyran-2-yl]oxy-phenyl]-1-oxo-2-isoquinolyl]acetic acid] | 0.016 µM
CNC(=O)c1cccc(-c2ccc([C@H](O)C3OC(CO)C(O)C(O)C3O)c(C)c2)c1 (single isomer, unassigned) [Example 18B] | 6.000 µM
Cc1cc(-c2ccc3ccn(CCN(C)C)c(=O)c3c2)ccc1O[C@H]1O[C@@H](CO)[C@@H](O)[C@H](O)[C@H]1O [Example 14, 2-(2-dimethylaminoethyl)-7-[3-methyl-4-[(2R,3R,4S,5S,6S)-3,4,5-trihydroxy-6-(hydroxymethyl)tetrahydropyran-2-yl]oxy-phenyl]isoquinolin-1-one] | 0.012 µM
Cc1cc(-c2cccc(C(=O)Nc3cccnc3)c2)ccc1O[C@H]1O[C@@H](CO)[C@@H](O)[C@H](O)[C@H]1O [Example 4, 3-[3-methyl-4-[(2R,3R,4S,5S,6S)-3,4,5-trihydroxy-6-(hydroxymethyl)tetrahydropyran-2-yl]oxy-phenyl]-N-(3-pyridyl)benzamide] | 0.032 µM
Cc1cc(-c2ccc3ccn(Cc4ccncc4)c(=O)c3c2)ccc1O[C@H]1O[C@@H](CO)[C@@H](O)[C@H](O)[C@H]1O [Example 15, 7-[3-methyl-4-[(2R,3R,4S,5S,6S)-3,4,5-trihydroxy-6-(hydroxymethyl)tetrahydropyran-2-yl]oxy-phenyl]-2-(4-pyridylmethyl)isoquinolin-1-one] | 0.004 µM
Cc1cc(-c2cccc(C(=O)Nc3ccncc3)c2)ccc1O[C@H]1O[C@@H](CO)[C@@H](O)[C@H](O)[C@H]1O [Example 3, 3-[3-methyl-4-[(2R,3R,4S,5S,6S)-3,4,5-trihydroxy-6-(hydroxymethyl)tetrahydropyran-2-yl]oxy-phenyl]-N-(4-pyridyl)benzamide] | 0.064 µM
Cc1cc(-c2ccc3ccn(CC(=O)NCCN)c(=O)c3c2)ccc1OC1OC(CO)C(O)C(O)C1O [Example 13, N-(2-aminoethyl)-2-[7-[3-methyl-4-[(2R,3R,4S,5S,6S)-3,4,5-trihydroy-6-(hydroxymethyl)tetrahydropyran-2-yl]oxy-phenyl]-1-oxo-2-isoquinolyl]acetamide] | 0.016 µM
